Laboratory results as given in patent US7053070B2, “Pyrido[2,3-d]pyrimidine-2,7-diamine kinase inhibitors” (Warner-Lambert Company, priority 2000, dated 2006).

Legend:
cdk4/cyclinD = cdk4/cyclinD (Homo sapiens, UniProt P11802); assay: Cyclin Dependent Kinase 4 (cdk-4) Assay, 32P incorporation, filter plate; assay type: biochemical; details: retinoblastoma substrate, 25 μM ATP, 25° C., 15 minutes; read-out: Inhibition of Cdks: IC50 Cdk4D
Description: Cyclin Dependent Kinase 4 (cdk-4) Assay
Enzyme assays for IC50 determinations and kinetic evaluation are performed in 96-well filter plates (Millipore MADVN6550). The total volume is 0.1 mL containing a final concentration of 20 mM TRIS (tris[hydroxymethyl]aminomethane), at pH 7.4, 50 mM NaCl, 1 mM dithiothreitol, 10 mM MgCl2, 25 μM ATP containing 0.25 μCi of [^32P]ATP, 20 ng of cdk4, 1 μg of retinoblastoma, and appropriate dilutions of a compound of the present invention. All components except the ATP are added to the wells, and the plate is placed on a plate mixer for 2 minutes. The reaction is started by adding [^32P]ATP, and the plate is incubated at 25° C. for 15 minutes. The reaction is terminated by addition of 0.1 mL of 20% trichloroacetic acid (TCA). The plate is kept at 4° C. for at least 1 hour to allow the substrate to precipitate. The wells are then washed 5 times with 0.2 mL of 10% TCA and ^32P incorporation is determined with a beta plate counter (Wallac Inc., Gaithersburg, Md.).

cdk1/cyclinB = cdk1/cyclinB (Homo sapiens, UniProt P06493); assay: Cyclin dependent kinase 1 assay (cdk1/cyclinB), 32P incorporation, filter plate; assay type: biochemical; details: retinoblastoma substrate, 12 mM ATP, 25° C., 15 minutes; read-out: Inhibition of Cdks: IC50 Cdk1/B
Description: (§1) Cyclin Dependent Kinase 1 and 2 Assays (cdk1/cyclinB, cdk2/cyclinA, cdk2/cyclinE)
(§2) Enzyme assays for IC50 determinations and kinetic evaluation are performed in a 96-well filter plate (Millipore MADVN6550) in a total volume of 0.1 mL of 20 mM TRIS (tris[hydroxymethyl]aminomethane), at pH 7.4, 50 mM NaCl, 1 mM dithiothreitol, 10 mM MgCl2, […] containing 0.25 μCi of [^32P]ATP, 20 ng of enzyme (either cdk1/B, cdk2/A, or cdk2E), 1 μg retinoblastoma and appropriate dilutions of the particular invention compound. All components except the ATP are added to the wells, and the plate is placed on a plate mixer for 2 minutes. The reaction is begun by addition of [^32P]ATP, and the plate is incubated at 25° C. for 15 minutes. The reaction is terminated by addition of 0.1 mL of 20% TCA. The plate is kept at 4° C. for at least 1 hour to allow the substrate to precipitate. The wells are then washed 5 times with 0.2 mL of 10% TCA and ^32P incorporation determined with a beta plate counter (Wallac Inc., Gaithersburg, Md.).

cdk2/cyclinE = cdk2/cyclinE (Homo sapiens, UniProt P24941); assay: Cyclin dependent kinase 2 assay (cdk2/cyclinE), 32P incorporation, filter plate; assay type: biochemical; details: retinoblastoma substrate, 12 mM ATP, 25° C., 15 minutes; read-out: Inhibition of Cdks: IC50 Cdk2/E
Description: as §1, §2

cdk2/cyclinA = cdk2/cyclinA (Homo sapiens, UniProt P24941); assay: Cyclin dependent kinase 2 assay (cdk2/cyclinA), 32P incorporation, filter plate; assay type: biochemical; details: retinoblastoma substrate, 12 mM ATP, 25° C., 15 minutes; read-out: Inhibition of Cdks: IC50 Cdk2/A
Description: as §1, §2

Sequence of cdk4/cyclinD (P11802 whole entry, species assumed): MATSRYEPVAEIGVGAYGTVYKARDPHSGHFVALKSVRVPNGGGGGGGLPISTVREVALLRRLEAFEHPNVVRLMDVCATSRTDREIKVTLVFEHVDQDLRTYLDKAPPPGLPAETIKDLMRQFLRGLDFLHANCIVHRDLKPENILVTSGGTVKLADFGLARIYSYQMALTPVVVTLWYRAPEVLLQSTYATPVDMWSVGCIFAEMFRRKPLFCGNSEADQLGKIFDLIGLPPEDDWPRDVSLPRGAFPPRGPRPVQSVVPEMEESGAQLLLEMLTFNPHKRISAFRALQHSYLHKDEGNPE
Sequence of cdk4/cyclinD (P24385 whole entry partner, species assumed): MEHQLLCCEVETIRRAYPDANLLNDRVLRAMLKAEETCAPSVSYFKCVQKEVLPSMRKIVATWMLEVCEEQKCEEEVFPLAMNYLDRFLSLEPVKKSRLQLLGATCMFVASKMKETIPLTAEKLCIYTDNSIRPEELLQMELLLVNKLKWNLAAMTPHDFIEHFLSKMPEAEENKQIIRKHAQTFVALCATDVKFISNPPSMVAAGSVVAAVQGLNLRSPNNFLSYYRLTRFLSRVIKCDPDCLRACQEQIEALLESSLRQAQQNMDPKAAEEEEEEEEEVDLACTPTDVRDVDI
Sequence of cdk1/cyclinB (P06493 whole entry, species assumed): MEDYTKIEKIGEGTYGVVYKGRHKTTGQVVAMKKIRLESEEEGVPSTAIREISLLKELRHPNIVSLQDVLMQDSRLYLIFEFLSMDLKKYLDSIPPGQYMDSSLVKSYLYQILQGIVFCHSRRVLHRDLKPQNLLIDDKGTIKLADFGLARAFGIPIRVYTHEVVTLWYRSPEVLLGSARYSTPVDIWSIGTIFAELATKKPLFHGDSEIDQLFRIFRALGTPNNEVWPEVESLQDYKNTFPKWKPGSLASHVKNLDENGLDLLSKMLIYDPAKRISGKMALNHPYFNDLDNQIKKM
Sequence of cdk1/cyclinB (P14635 whole entry partner, species assumed): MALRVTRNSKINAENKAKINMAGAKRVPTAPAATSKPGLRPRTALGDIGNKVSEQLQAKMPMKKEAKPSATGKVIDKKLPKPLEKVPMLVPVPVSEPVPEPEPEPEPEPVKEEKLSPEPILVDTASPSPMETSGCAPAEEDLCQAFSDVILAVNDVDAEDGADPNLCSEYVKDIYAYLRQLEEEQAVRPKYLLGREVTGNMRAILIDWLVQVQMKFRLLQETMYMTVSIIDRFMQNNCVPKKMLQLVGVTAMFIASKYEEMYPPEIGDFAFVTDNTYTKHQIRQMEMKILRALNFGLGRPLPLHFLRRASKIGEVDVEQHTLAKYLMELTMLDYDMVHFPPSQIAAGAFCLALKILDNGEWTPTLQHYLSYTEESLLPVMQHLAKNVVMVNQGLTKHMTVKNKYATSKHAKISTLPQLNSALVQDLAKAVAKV

SMILES | IC50 (cdk4/cyclinD) [nM] | IC50 (cdk1/cyclinB) [nM] | melting point | IC50 (cdk2/cyclinE) [nM] | IC50 (cdk2/cyclinA) [nM]
CCNC(=O)Nc1cc(C)c2cnc(Nc3ccc(N4CCNCC4)cc3)nc2n1 [Compound 28, 1-Ethyl-3-[5-methyl-2-(4-piperazin-1-yl-phenylamino)-pyrido[2,3-d]pyrimidin-7-yl]-urea] | > 5000 | > 5000 | 220 to 222 °C | > 5000 | > 5000
O=C(NCCCO)Nc1ccc2cnc(Nc3ccc(N4CCNCC4)cc3)nc2n1 [Compound 81, 1-(3-Hydroxy-propyl)-3-[2-(4-piperazin-1-yl-phenylamino)-pyrido[2,3-d]pyrimidin-7-yl]-urea] | 500 | 2610 | 183 °C (dec.) | 3250 | 1560
Cc1cc(NC(=O)NC2CCCC2)nc2nc(Nc3ccc(N4CCNCC4)cc3)ncc12 [Compound 53, 1-Cyclopentyl-3-[5-methyl-2-(4-piperazin-1-yl-phenylamino)-pyrido[2,3-d]pyrimidin-7-yl]-urea] | > 5000 | > 5000 | 234 °C (dec.) | > 5000 | > 5000
CC(=O)N1CCN(c2ccc(Nc3ncc4ccc(NC(=O)NCCCN5CCOCC5)nc4n3)cc2)CC1 [Compound 103, 1-{2-[4-(4-Acetyl-piperazin-1-yl)-phenylamino]-pyrido[2,3-d]pyrimidin-7-yl}-3-(3-morpholin-4-yl-propyl)-urea] | > 5000 | > 5000 | 221 to 225 °C (dec.) | > 5000 | > 5000

Results, then the compound that gave them:

IC50 (cdk4/cyclinD) [nM] | IC50 (cdk1/cyclinB) [nM] | melting point | IC50 (cdk2/cyclinE) [nM] | IC50 (cdk2/cyclinA) [nM] | SMILES
> 5000 | > 5000 | 223 to 225 °C | > 5000 | > 5000 | CCCNC(=O)Nc1cc(C)c2cnc(Nc3ccc(N4CCNCC4)cc3)nc2n1 [Compound 111, 1-[5-Methyl-2-(4-piperazin-1-yl-phenylamino)-pyrido[2,3-d]pyrimidin-7-yl]-3-propyl-urea]
> 5000 | > 5000 | 228 to 230 °C (dec.) | > 5000 | > 5000 | Cc1cc(NS(=O)(=O)N(C)C)nc2nc(Nc3ccc(N4CCNCC4)cc3)ncc12 [Compound 71]
25 | 418 | 200 °C (dec.) | 55 | 43 | CC(C)[C@H](CO)NC(=O)Nc1ccc2cnc(Nc3ccc(N4CCNCC4)cc3)nc2n1 [Compound 88, 1-((R)-1-Hydroxymethyl-2-methyl-propyl)-3-[2-(4-piperazin-1-yl-phenylamino)-pyrido[2,3-d]pyrimidin-7-yl]-urea]
1050 | 442 | 217 to 220 °C | 140 | 157 | NCCNC(=O)Nc1ccc2cnc(Nc3ccc(F)cc3)nc2n1 [Compound 98, 1-(2-Amino-ethyl)-3-[2-(4-fluoro-phenylamino)-pyrido[2,3-d]pyrimidin-7-yl]-urea]
